# US7858044B2, “Multi-well plate providing a high-density storage and assay platform” (Nexus Biosystems, Inc., priority 2003, dated 2010)
# Target: recombinant human CYP 3A4 (Homo sapiens, UniProt P08684)
# Assay: CYP 3A4 isozyme inhibition screen with fluorogenic substrate BOMR in 3456-well plate
# Details: concentration series
# recombinant human CYP 3A4, sequence (P08684 whole entry): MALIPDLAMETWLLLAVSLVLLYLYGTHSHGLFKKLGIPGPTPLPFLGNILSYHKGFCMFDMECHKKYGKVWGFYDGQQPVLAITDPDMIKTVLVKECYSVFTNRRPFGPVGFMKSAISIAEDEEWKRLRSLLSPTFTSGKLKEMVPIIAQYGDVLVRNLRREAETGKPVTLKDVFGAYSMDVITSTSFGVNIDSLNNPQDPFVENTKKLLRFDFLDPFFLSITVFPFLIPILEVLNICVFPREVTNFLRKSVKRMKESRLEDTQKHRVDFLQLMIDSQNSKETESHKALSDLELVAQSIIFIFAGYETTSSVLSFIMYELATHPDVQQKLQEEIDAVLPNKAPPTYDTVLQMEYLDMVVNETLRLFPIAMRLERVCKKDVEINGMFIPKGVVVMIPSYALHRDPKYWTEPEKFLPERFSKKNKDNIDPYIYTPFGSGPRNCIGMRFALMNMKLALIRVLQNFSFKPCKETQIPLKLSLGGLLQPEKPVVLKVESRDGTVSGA
smiles,measurement,value
C[C@]12CC[C@H]3[C@@H](CCC4=CC(=O)CC[C@@]43C)[C@@H]1CC[C@@H]2O [testosterone],Potentiation of CYP 3A4 isozyme,Potentiation
